Source: PMC7206119, “RIP1 inhibition blocks inflammatory diseases but not tumor growth or metastases” (Cell Death and Differentiation, 2019)

Legend:
Test in all cases: biochemical
Parameters in all cases: DiscoverX kinase panel, active-site competition binding (KINOMEscan type), percent of control at one concentration
Conditions in all cases: competition binding, percent of control
CDK4-cyclinD3 = biological target: T1, CDK4-cyclinD3 (Homo sapiens, UniProt P11802)
T1 construct: cyclinD3

DRAK2 = biological target: T2, DRAK2 (Homo sapiens, UniProt O94768)
T2 construct: gene STK17B

NEK6 = NEK6 (Homo sapiens, UniProt Q9HC98)
TNK1 = TNK1 (Homo sapiens, UniProt Q13470)
DYRK2 = DYRK2 (Homo sapiens, UniProt Q92630)
NEK10 = NEK10 (Homo sapiens, UniProt Q6ZWH5)
NIM1 = biological target: T3, NIM1 (Homo sapiens, UniProt Q8IY84)
T3 construct: gene NIM1K

AAK1 = AAK1 (Homo sapiens, UniProt Q2M2I8)
FLT1 = FLT1 (Homo sapiens, UniProt P17948)
PAK4 = PAK4 (Homo sapiens, UniProt O96013)
DYRK1A = DYRK1A (Homo sapiens, UniProt Q13627)
IKK-epsilon = biological target: T4, IKK-epsilon (Homo sapiens, UniProt Q14164)
T4 construct: gene IKBKE

CAMK1D = CAMK1D (Homo sapiens, UniProt Q8IU85)
CHEK2 = CHEK2 (Homo sapiens, UniProt O96017)
MTOR = MTOR (Homo sapiens, UniProt P42345)
EPHB1 = EPHB1 (Homo sapiens, UniProt P54762)
RET(M918T) = RET(M918T) (Homo sapiens, UniProt P07949, M918T)
MAP3K4 = MAP3K4 (Homo sapiens, UniProt Q9Y6R4)
EGFR(T790M) = EGFR(T790M) (Homo sapiens, UniProt P00533, T790M)
CAMK1G = CAMK1G (Homo sapiens, UniProt Q96NX5)
SgK110 = biological target: T5, SgK110 (Homo sapiens, UniProt P0C264)
T5 construct: gene SBK3

DRAK1 = biological target: T6, DRAK1 (Homo sapiens, UniProt Q9UEE5)
T6 construct: gene STK17A
T6 sequence (Q9UEE5 whole entry): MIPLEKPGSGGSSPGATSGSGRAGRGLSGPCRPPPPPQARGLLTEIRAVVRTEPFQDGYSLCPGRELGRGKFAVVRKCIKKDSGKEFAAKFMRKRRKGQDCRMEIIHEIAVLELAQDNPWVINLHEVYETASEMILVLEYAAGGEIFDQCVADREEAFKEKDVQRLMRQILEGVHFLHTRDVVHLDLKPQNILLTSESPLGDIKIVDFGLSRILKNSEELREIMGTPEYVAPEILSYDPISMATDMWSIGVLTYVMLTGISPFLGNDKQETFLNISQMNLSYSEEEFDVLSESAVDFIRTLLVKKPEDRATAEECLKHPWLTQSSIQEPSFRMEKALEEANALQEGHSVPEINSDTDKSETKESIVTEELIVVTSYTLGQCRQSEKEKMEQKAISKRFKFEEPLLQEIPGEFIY

FLT1, sequence (P17948 whole entry): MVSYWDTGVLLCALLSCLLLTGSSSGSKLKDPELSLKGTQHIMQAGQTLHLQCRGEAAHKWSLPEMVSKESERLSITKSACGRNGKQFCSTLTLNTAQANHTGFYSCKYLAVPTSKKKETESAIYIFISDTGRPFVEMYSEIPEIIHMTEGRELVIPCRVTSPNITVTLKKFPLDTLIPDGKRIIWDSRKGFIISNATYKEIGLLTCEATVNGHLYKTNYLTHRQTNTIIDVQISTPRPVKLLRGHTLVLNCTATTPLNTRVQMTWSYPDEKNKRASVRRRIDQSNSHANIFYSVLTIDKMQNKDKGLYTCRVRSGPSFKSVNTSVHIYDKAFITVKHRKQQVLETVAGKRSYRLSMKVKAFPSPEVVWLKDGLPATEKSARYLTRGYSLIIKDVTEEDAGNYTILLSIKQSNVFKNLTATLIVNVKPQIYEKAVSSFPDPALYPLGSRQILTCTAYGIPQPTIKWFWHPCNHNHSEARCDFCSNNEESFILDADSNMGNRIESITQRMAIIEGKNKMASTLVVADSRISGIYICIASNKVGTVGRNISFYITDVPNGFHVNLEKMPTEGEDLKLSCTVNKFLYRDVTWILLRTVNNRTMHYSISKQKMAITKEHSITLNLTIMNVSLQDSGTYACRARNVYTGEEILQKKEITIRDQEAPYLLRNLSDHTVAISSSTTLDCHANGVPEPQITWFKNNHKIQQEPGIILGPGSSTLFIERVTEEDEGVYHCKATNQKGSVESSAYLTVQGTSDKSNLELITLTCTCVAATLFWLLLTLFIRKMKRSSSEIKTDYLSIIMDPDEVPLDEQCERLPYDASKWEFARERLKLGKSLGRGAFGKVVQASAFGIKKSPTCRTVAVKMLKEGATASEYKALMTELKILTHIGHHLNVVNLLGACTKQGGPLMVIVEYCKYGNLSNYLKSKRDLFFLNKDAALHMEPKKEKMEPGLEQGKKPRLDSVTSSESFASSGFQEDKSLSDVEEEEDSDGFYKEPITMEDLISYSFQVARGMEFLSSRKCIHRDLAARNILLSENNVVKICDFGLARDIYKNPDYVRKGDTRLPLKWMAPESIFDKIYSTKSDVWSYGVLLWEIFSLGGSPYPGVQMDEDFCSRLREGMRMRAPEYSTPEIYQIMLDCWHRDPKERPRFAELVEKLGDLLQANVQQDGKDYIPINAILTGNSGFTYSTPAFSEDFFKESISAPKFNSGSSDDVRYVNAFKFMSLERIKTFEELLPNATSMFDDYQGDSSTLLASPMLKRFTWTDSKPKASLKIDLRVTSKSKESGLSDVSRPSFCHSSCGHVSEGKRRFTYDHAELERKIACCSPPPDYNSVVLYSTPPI
EGFR(T790M), sequence (P00533 whole entry T790M): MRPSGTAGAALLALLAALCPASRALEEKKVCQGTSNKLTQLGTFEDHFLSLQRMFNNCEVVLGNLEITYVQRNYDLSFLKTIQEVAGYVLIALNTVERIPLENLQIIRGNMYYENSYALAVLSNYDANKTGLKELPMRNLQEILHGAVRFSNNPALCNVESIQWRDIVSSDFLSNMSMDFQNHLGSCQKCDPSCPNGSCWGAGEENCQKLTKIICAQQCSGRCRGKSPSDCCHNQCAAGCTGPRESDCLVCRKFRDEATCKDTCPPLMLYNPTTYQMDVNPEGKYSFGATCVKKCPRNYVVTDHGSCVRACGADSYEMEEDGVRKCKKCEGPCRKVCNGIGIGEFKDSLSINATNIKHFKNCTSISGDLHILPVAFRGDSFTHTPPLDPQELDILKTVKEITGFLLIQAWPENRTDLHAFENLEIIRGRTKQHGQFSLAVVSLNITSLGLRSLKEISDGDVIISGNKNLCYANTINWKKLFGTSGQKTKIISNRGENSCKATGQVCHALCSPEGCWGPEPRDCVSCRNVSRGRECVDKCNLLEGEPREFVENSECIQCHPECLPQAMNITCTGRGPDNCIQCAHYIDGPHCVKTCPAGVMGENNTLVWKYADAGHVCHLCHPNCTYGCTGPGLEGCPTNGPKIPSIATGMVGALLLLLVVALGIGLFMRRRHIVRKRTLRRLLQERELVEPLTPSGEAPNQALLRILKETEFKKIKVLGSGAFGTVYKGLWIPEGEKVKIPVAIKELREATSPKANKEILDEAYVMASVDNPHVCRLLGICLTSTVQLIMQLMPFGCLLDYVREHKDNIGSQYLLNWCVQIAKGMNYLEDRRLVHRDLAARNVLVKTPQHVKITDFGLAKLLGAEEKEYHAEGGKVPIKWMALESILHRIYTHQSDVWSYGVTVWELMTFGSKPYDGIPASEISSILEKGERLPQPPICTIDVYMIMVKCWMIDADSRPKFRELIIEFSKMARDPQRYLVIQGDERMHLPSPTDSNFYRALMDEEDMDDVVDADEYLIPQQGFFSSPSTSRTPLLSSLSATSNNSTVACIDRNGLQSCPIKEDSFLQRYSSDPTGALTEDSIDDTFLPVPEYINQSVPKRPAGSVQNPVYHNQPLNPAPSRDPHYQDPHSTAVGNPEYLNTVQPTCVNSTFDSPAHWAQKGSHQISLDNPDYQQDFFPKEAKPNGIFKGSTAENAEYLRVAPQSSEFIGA
T1 sequence (P11802 whole entry): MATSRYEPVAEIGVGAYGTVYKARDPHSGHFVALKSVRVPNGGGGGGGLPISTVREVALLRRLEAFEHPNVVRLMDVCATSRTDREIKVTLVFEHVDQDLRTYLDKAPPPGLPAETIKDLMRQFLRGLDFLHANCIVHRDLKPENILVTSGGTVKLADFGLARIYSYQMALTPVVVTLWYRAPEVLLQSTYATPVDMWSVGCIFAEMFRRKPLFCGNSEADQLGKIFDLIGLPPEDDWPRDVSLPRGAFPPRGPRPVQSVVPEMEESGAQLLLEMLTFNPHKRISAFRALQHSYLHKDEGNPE
T1 sequence (P30281 whole entry partner): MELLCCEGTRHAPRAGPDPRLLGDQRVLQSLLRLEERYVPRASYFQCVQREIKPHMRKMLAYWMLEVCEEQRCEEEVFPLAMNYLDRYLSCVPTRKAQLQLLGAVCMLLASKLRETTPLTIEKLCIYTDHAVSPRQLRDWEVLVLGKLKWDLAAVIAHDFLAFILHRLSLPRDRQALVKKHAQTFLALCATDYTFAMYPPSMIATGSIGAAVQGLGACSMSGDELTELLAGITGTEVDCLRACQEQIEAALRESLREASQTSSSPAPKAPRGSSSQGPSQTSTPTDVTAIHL
EPHB1, sequence (P54762 whole entry): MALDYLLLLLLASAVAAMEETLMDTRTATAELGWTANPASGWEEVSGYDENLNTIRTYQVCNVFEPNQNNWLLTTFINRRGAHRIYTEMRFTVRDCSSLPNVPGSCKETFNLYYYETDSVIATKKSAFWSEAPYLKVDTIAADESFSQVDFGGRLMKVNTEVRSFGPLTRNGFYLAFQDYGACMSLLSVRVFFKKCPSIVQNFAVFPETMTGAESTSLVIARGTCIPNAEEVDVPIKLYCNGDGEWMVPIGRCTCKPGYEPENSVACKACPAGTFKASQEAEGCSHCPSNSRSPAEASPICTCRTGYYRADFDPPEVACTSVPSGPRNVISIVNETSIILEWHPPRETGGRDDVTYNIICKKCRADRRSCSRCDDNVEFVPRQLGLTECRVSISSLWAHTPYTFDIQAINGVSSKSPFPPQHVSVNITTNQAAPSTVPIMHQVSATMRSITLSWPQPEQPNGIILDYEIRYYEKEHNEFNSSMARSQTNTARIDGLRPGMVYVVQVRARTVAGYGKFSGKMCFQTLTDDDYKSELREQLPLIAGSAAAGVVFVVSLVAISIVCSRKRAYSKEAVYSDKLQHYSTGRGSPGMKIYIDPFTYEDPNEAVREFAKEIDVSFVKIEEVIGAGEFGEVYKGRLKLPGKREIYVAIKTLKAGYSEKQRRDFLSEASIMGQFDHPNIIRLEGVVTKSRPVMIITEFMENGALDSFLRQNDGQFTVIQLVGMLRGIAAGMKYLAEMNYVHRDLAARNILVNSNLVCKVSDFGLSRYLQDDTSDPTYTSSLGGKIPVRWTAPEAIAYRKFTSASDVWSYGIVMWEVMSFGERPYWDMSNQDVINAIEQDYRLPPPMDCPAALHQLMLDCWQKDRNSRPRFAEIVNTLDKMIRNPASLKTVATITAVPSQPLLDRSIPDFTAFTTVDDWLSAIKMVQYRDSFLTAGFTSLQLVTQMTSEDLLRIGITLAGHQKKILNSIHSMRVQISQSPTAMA
NEK6, sequence (Q9HC98 whole entry): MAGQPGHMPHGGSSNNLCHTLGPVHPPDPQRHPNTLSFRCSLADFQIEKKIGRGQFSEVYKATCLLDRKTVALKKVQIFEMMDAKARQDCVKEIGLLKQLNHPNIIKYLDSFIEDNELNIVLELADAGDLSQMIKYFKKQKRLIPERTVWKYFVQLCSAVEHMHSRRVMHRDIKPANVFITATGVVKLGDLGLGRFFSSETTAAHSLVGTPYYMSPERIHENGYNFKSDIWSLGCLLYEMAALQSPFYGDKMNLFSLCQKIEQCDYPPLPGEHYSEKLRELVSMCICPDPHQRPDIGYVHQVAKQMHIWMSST

COc1cc2c(cn1)N(C)C(=O)[C@@H](NC(=O)c1nc3n(n1)[C@H](c1ccccc1)CC3)CC2 [GNE684, (S)-N-((S)-7-methoxy-1-methyl-2-oxo-2,3,4,5-tetrahydro-1H-pyrido[3,4-b]azepin-3-yl)-5-phenyl-6,7-dihydro-5H-pyrrolo[1,2-b][1,2,4]triazole-2-carboxamide] showed a remaining binding at 10 µM (CDK4-cyclinD3) of 97%, a remaining binding at 10 µM (DRAK2) of 100% and a remaining binding at 10 µM (NEK6) of 85%. For the same compound, the remaining binding at 10 µM (TNK1) was 100%, the remaining binding at 10 µM (DYRK2) was 87% and the remaining binding at 10 µM (NEK10) was 100%. The remaining binding at 10 µM (NIM1) was 89%, the remaining binding at 10 µM (AAK1) was 100% and the remaining binding at 10 µM (FLT1) was 100%. The remaining binding at 10 µM (PAK4) was 93%, the remaining binding at 10 µM (DYRK1A) was 79% and the remaining binding at 10 µM (IKK-epsilon) was 88%. It also gave a remaining binding at 10 µM (CAMK1D) of 98%, a remaining binding at 10 µM (CHEK2) of 100% and a remaining binding at 10 µM (MTOR) of 100%. For the same compound, the remaining binding at 10 µM (EPHB1) was 100%, the remaining binding at 10 µM (RET(M918T)) was 89% and the remaining binding at 10 µM (MAP3K4) was 92%. For the same compound, the remaining binding at 10 µM (EGFR(T790M)) was 100%, the remaining binding at 10 µM (CAMK1G) was 100% and the remaining binding at 10 µM (SgK110) was 67%. It also gave a remaining binding at 10 µM (DRAK1) of 92%.
